Measured values: the supplement of paper PMC10307832

Experiments:
Test in all cases: relative viability (nuclei count vs DMSO), 5 days (fraction); higher = more cells survive
NCI-H1792 = tested on: NCI-H1792
Outline: (§1)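 Lung cancer cell lines were seeded in 1536-well plates and dosed by pin tool the next day, with either a single drug or a fixed anchor-drug dose combined with five library-drug doses (not always all listed) spaced in √10 steps. Five days later, one step fixed the cells and stained their nuclei (final 0.05% Triton X-100, 1% formaldehyde, 1 ug/ml Hoechst), and nuclei were counted on 4× images. Relative viability is the nuclei count in treated wells divided by the count in vehicle wells, and each value is the median of duplicate plates.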

HCC-366 = tested on: HCC-366
Outline: as §1

NCI-H1993 = tested on: NCI-H1993
Outline: as §1

NCI-H2170 = tested on: NCI-H2170
Outline: as §1

NCI-H522 = tested on: NCI-H522
Outline: as §1

HARA = tested on: HARA
Outline: as §1

NCI-H1355 = tested on: NCI-H1355
Outline: as §1

LOU-NH91 = tested on: LOU-NH91
Outline: as §1

NCI-H661 = tested on: NCI-H661
Outline: as §1

NCI-H2087 = tested on: NCI-H2087
Outline: as §1

NCI-H1395 = tested on: NCI-H1395
Outline: as §1

NCI-H2009 = tested on: NCI-H2009
Outline: as §1

SK-MES-1 = tested on: SK-MES-1
Outline: as §1

BEN = tested on: BEN
Outline: as §1

EKVX = tested on: EKVX
Outline: as §1

NCI-H1734 = tested on: NCI-H1734
Outline: as §1

NCI-H1437 = tested on: NCI-H1437
Outline: as §1

HCC-827 = tested on: HCC-827
Outline: as §1

NCI-H2342 = tested on: NCI-H2342
Outline: as §1

NCI-H647 = tested on: NCI-H647
Outline: as §1

SK-LU-1 = tested on: SK-LU-1
Outline: as §1

NCI-H2405 = tested on: NCI-H2405
Outline: as §1

O=c1cc(-c2cccc3c2Sc2ccccc2S3)oc(N2CCOCC2)c1 + Nc1ncn([C@H]2C[C@H](O)[C@@H](CO)O2)c(=O)n1 [Decitabine] (partner 2 µM)
relative viability (NCI-H1792; first compound 0.08 µM): 0.531
relative viability (NCI-H1792; first compound 0.253 µM): 0.828
relative viability (NCI-H1792; first compound 0.8 µM): 0.45
relative viability (NCI-H1792; first compound 2.53 µM): 0.723
relative viability (NCI-H1792; first compound 8 µM): 0.575
relative viability (HCC-366; first compound 0.08 µM): 0.324
relative viability (HCC-366; first compound 0.253 µM): 0.486
relative viability (HCC-366; first compound 0.8 µM): 0.363
relative viability (HCC-366; first compound 2.53 µM): 0.273
relative viability (HCC-366; first compound 8 µM): 0.33
relative viability (NCI-H1993; first compound 0.08 µM): 0.593
relative viability (NCI-H1993; first compound 0.253 µM): 0.61
relative viability (NCI-H1993; first compound 0.8 µM): 0.467
relative viability (NCI-H1993; first compound 2.53 µM): 0.586
relative viability (NCI-H1993; first compound 8 µM): 0.577
relative viability (NCI-H2170; first compound 0.08 µM): 0.439
relative viability (NCI-H2170; first compound 0.253 µM): 0.524
relative viability (NCI-H2170; first compound 0.8 µM): 0.48
relative viability (NCI-H2170; first compound 2.53 µM): 0.424
relative viability (NCI-H2170; first compound 8 µM): 0.465
relative viability (NCI-H522; first compound 0.08 µM): 0.693
relative viability (NCI-H522; first compound 0.253 µM): 0.743
relative viability (NCI-H522; first compound 0.8 µM): 0.689
relative viability (NCI-H522; first compound 2.53 µM): 0.66
relative viability (NCI-H522; first compound 8 µM): 0.796
relative viability (HARA; first compound 0.08 µM): 0.634
relative viability (HARA; first compound 0.253 µM): 0.52
relative viability (HARA; first compound 0.8 µM): 0.483
relative viability (HARA; first compound 2.53 µM): 0.555
relative viability (HARA; first compound 8 µM): 0.49
relative viability (NCI-H1355; first compound 0.08 µM): 0.374
relative viability (NCI-H1355; first compound 0.253 µM): 0.382
relative viability (NCI-H1355; first compound 0.8 µM): 0.342
relative viability (NCI-H1355; first compound 2.53 µM): 0.373
relative viability (NCI-H1355; first compound 8 µM): 0.331
relative viability (LOU-NH91; first compound 0.08 µM): 0.777
relative viability (LOU-NH91; first compound 0.253 µM): 0.894
relative viability (LOU-NH91; first compound 0.8 µM): 0.784
relative viability (LOU-NH91; first compound 2.53 µM): 0.777
relative viability (LOU-NH91; first compound 8 µM): 0.844
relative viability (NCI-H661; first compound 0.08 µM): 0.536
relative viability (NCI-H661; first compound 0.253 µM): 0.572
relative viability (NCI-H661; first compound 0.8 µM): 0.518
relative viability (NCI-H661; first compound 2.53 µM): 0.551
relative viability (NCI-H661; first compound 8 µM): 0.558
relative viability (NCI-H2087; first compound 0.08 µM): 0.231
relative viability (NCI-H2087; first compound 0.253 µM): 0.257
relative viability (NCI-H2087; first compound 0.8 µM): 0.266
relative viability (NCI-H2087; first compound 2.53 µM): 0.242
relative viability (NCI-H2087; first compound 8 µM): 0.238
relative viability (NCI-H1395; first compound 0.08 µM): 0.711
relative viability (NCI-H1395; first compound 0.253 µM): 0.825
relative viability (NCI-H1395; first compound 0.8 µM): 0.736
relative viability (NCI-H1395; first compound 2.53 µM): 0.718
relative viability (NCI-H1395; first compound 8 µM): 0.763
relative viability (NCI-H2009; first compound 0.08 µM): 0.375
relative viability (NCI-H2009; first compound 0.253 µM): 0.358
relative viability (NCI-H2009; first compound 0.8 µM): 0.38
relative viability (NCI-H2009; first compound 2.53 µM): 0.348
relative viability (NCI-H2009; first compound 8 µM): 0.343
relative viability (SK-MES-1; first compound 0.08 µM): 0.337
relative viability (SK-MES-1; first compound 0.253 µM): 0.406
relative viability (SK-MES-1; first compound 0.8 µM): 0.352
relative viability (SK-MES-1; first compound 2.53 µM): 0.458
relative viability (SK-MES-1; first compound 8 µM): 0.375
relative viability (BEN; first compound 0.08 µM): 0.649
relative viability (BEN; first compound 0.253 µM): 0.699
relative viability (BEN; first compound 0.8 µM): 0.69
relative viability (BEN; first compound 2.53 µM): 0.586
relative viability (BEN; first compound 8 µM): 0.943
relative viability (EKVX; first compound 0.08 µM): 0.431
relative viability (EKVX; first compound 0.253 µM): 0.34
relative viability (EKVX; first compound 0.8 µM): 0.371
relative viability (EKVX; first compound 2.53 µM): 0.37
relative viability (EKVX; first compound 8 µM): 0.349
relative viability (NCI-H1734; first compound 0.08 µM): 0.452
relative viability (NCI-H1734; first compound 0.253 µM): 0.574
relative viability (NCI-H1734; first compound 0.8 µM): 0.528
relative viability (NCI-H1734; first compound 8 µM): 0.512
relative viability (NCI-H1437; first compound 0.08 µM): 0.573
relative viability (NCI-H1437; first compound 0.253 µM): 0.708
relative viability (NCI-H1437; first compound 0.8 µM): 0.628
relative viability (NCI-H1437; first compound 2.53 µM): 0.524
relative viability (NCI-H1437; first compound 8 µM): 0.578
relative viability (HCC-827; first compound 0.08 µM): 0.266
relative viability (HCC-827; first compound 0.253 µM): 0.341
relative viability (HCC-827; first compound 0.8 µM): 0.315
relative viability (HCC-827; first compound 2.53 µM): 0.219
relative viability (HCC-827; first compound 8 µM): 0.344
relative viability (NCI-H2342; first compound 0.08 µM): 0.662
relative viability (NCI-H2342; first compound 0.253 µM): 0.794
relative viability (NCI-H2342; first compound 0.8 µM): 0.734
relative viability (NCI-H2342; first compound 2.53 µM): 0.721
relative viability (NCI-H2342; first compound 8 µM): 0.77
relative viability (NCI-H647; first compound 0.08 µM): 0.428
relative viability (NCI-H647; first compound 0.253 µM): 0.534
relative viability (NCI-H647; first compound 0.8 µM): 0.414
relative viability (NCI-H647; first compound 2.53 µM): 0.403
relative viability (NCI-H647; first compound 8 µM): 0.45
relative viability (SK-LU-1; first compound 0.08 µM): 0.678
relative viability (SK-LU-1; first compound 0.253 µM): 0.813
relative viability (SK-LU-1; first compound 0.8 µM): 0.755
relative viability (SK-LU-1; first compound 2.53 µM): 0.643
relative viability (SK-LU-1; first compound 8 µM): 0.648
relative viability (NCI-H2405; first compound 0.08 µM): 0.697
relative viability (NCI-H2405; first compound 0.253 µM): 0.864
relative viability (NCI-H2405; first compound 0.8 µM): 0.677
relative viability (NCI-H2405; first compound 2.53 µM): 0.695
relative viability (NCI-H2405; first compound 8 µM): 0.756
